US20190247353A1, “ACNE STRAIN-SELECTIVE ANTIBACTERIAL AGENT” (MOMOTANI JUNTENKAN CO., LTD., priority 2016, published 2019)
Values after ≈ are worked out from the molar mass of the structure shown. Like-named read-outs stand apart in the source and are kept apart here.

Legend:
Assay type in all cases: cell-based, Propionibacterium acnes
HL053PA1 strain (RT4) = test: MIC by broth microdilution method, HL053PA1 strain; details: Cutibacterium acnes, read-out: MIC against acne bacterium strain HL053PA1 strain (RT4)
Experimental: (§1) An MIC is measured herein according to the broth microdilution method which is the standard method of Japanese Society of Chemotherapy.
(§2) The antibacterial activity of a test substance was determined based on the minimum inhibitory concentration (MIC). An MIC was measured according to the broth microdilution method which is the standard method of Japanese Society of Chemotherapy.
(§3) One-loopful of each acne bacterium strain listed in Table 1 was scraped off and inoculated into 5 mL of a GAM broth slant agar medium (pH 7.0, Nissui Pharmaceutical Co., Ltd.).
The inoculated acne bacterium strain was precultured at 37° C. in a nitrogen atmosphere (anaerobic condition) for 48 hours. The precultured microbial cells were diluted in a modified GAM broth liquid medium (pH 6.0) to a concentration of 5.0×10^4 cfu/mL (viable cell count per OD660=1 is 2.0×10^9 cfu/mL), to prepare strain suspensions.
(§4) Each fatty acid (Tokyo Chemical Industry Co., Ltd.) listed in Table 2 was dissolved in dimethylsulfoxide (DMSO) as a solvent such that the concentration became 10,000 μg/mL, and used as a test substance.
(§5) Each of strain suspensions (5.0×10^4 cfu/mL) was aliquoted in a 96-well round bottom microplate, each of the test substance (fatty acid concentration 10,000 μg/mL) was added at a 1/10 volume to the aliquot and mixed to prepare measurement samples (fatty acid concentration: 1,000 μg/mL). Measurement samples in 2-fold dilution series were prepared using the strain suspension (fatty acid concentration from 0.48 to 1,000 μg/mL).
[…] The presence or absence of a precipitation of test microbial cells after the incubation was examined and the minimum concentration at which the precipitation of microbial cells […] was regarded as the MIC (μg/mL) of the test substance against the acne bacterium strain.

HL043PA1 strain (RT5) = test: MIC by broth microdilution method, HL043PA1 strain; details: Cutibacterium acnes, read-out: MIC against acne bacterium strain HL043PA1 strain (RT5)
Experimental: as §1, §2, §3
The inoculated acne bacterium strain was precultured at 37° C. in a nitrogen atmosphere (anaerobic condition) for 48 hours. […]
as §4, §5
The measurement samples were incubated under an anaerobic condition at 37° C. for 2 days. The presence or absence of a precipitation of test microbial cells after the incubation was examined and the minimum concentration at which the precipitation of microbial cells […] was regarded as the MIC (μg/mL) of the test substance against the acne bacterium strain.

[1] = system: HL053PA1 strain (RT4) and HL043PA1 strain (RT5) versus HL110PA3 strain (RT6); test: Strain-selective antibacterial activity (average of MICRT6/MICRT4 and MICRT6/MICRT5)
Description: Herein, “acne strain-selective antibacterial activity” or “strain-selective antibacterial activity” means an index indicating better inhibition of growth of a dominant strain in acne patients compared to that of a dominant strain in healthy subjects. It is expressed by the average value of the values (MICRT6/MICRT4, and MICRT6/MICRTS) obtained by dividing the minimum inhibitory concentration (MIC) of an object substance with respect to the dominant strain in healthy subjects (RT6 strain) (MICRT6) respectively by the MIC of the object substance with respect to the dominant strain in acne patients (RT4 strain) (MICRT4), and by the MIC of the object substance with respect to the dominant strain in acne patients (RT5 strain) (MICRT5).
The strain-selective antibacterial activity of each test substance (Table 2, right-most column) was evaluated based on the following rating criteria (Table 3). When the strain-selective antibacterial activity is indicated by a numerical range, the rating was based on the minimum value thereof.

HL110PA3 strain (RT6) = test: MIC by broth microdilution method, HL110PA3 strain; details: Cutibacterium acnes, read-out: MIC against acne bacterium strain HL110PA3 strain (RT6)
[2] = control antibacterial agents, Comparative Example 1, method as Example 1
[3] = control antibacterial agents, Comparative Example 1
[4] = control antibiotics, Comparative Example 2, method as Example 1
[5] = control antibiotics, Comparative Example 2, for LOD calculated using 0.48 ng/mL as MIC of the RT6 strain
[6] = control antibiotics, Comparative Example 2, method as Example 1, LOD = MIC <0.48 ng/mL

MIC (HL053PA1 strain (RT4); [4]) [µg/mL] | MIC (HL043PA1 strain (RT5); [4]) [µg/mL] | MIC (HL110PA3 strain (RT6); [6]) [µg/mL] | Compound | MIC (HL053PA1 strain (RT4); [2]) [µg/mL] | MIC (HL043PA1 strain (RT5); [2]) [µg/mL] | Strain-selective antibacterial activity [1, 3] | MIC (HL110PA3 strain (RT6); [2]) [µg/mL] | Strain-selective antibacterial activity [1, 5]
– | – | – | CCO [Ethanol, reference compound] | > 1000 | 500 (≈ 10900 µM) | <0.75 | 500 (≈ 10900 µM) | –
– | – | – | CC(C)c1cccc(=O)c(O)c1 [Hinokitiol, reference compound] | 31.3 (≈ 191 µM) | 31.3 (≈ 191 µM) | 1.0 | 31.3 (≈ 191 µM) | –
0.24 (≈ 0.525 µM) | 0.49 (≈ 1.07 µM) | < 0.00048 | CN(C)c1ccc(O)c2c1C[C@H]1C[C@H]3[C@H](N(C)C)C(O)=C(C(N)=O)C(=O)[C@@]3(O)C(O)=C1C2=O [Minocycline, reference compound] | – | – | – | – | <1.5 × 10^−3
0.031 (≈ 0.086 µM) | 0.031 (≈ 0.086 µM) | < 0.00048 | CC1CCc2c(N3CCC(O)CC3)c(F)cc3c(=O)c(C(=O)O)cn1c23 (stereo not shown) [Nadifloxacin, reference compound] | – | – | – | – | <1.5 × 10^−2
